We go through two compounds from patent US20240415814A1, “PHARMACEUTICAL COMPOSITION COMPRISING 1-(3-CYANO-1-ISOPROPYL-INDOL-5-YL)PYRAZOLE-4-CARBOXYLIC ACID” (LG CHEM, LTD., priority 2021, published 2024).

The test system of assay [1] is serum uric acid. The experiment in a line: Phase 2 clinical trial (NCT03934099): serum uric acid concentration in gout patients. The settings on record: for patients with serum uric acid concentration <4 mg/dL / patients with serum uric acid concentration <5 mg/dL / patients with serum uric acid concentration <6 mg/dL: febuxostat group 40 mg oral. It is filed as in vivo, human. The protocol:
A phase 2 clinical trial was conducted to analyze the dosage, TEAEs, and the like when the compound of Formula 1 (1-(3-cyano-1-isopropyl-indol-5-yl)pyrazol-4-carboxylic acid; compound of Example 1) is administered to a gout patient group.
• 1. Written informed consent (signed and dated) provided voluntarily prior to the start of the study. • 2. Male or female aged from 18 to 75 • 3. History or experience of hyperuricemia and gout in accordance with the criteria of the American College of Rheumatology. • 4. Self-reported history of 2 or more gout flare within 12 months prior to screening visit (Visit 1). • 5. Serum uric acid (sUA) levels at Visit 1 of 6.0 mg/dL or more in subjects who were receiving urate lower therapy (ULT) with allopurinol, febuxostat, probenecid, or lesinurad; and sUA levels at Visit 1 of 8.0 mg/dL or more and 12.0 mg/dL or less in subjects who had no history of receiving the ULT or were not receiving the ULT at visit 1. • 6. sUA levels of 8.0 mg/dL or more and 12.0 mg/dL or less at Visit 3. • 7. Body mass index of 42 kg/m^2 or less at screening visit (Visit 1). • 8. Estimated glomerular filtration rate (eGFR) of 60 mL/min/1.73 m^2 or more at screening visit (Visit 1). • 9. Subjects of childbearing potential with a negative pregnancy test result at screening visit (Visit 1). Subjects (female subjects of childbearing potential and male subjects with partners of childbearing potential) consented to use adequate methods of contraception to avoid pregnancy during the study period. • 10. Able to understand the study procedure and relevant risk, and willing to comply with the visit/protocol schedule.
• 1. Presence of secondary hyperuricemia caused by myeloproliferative disorder, organ transplantation, or the like. • 2. Experience of any active acute gout flare within 3 weeks prior to screening visit (Visit 1). • 3. Aspartate aminotransferase or alanine aminotransferase level exceeds 2 times upper limit of normal (ULN) at screening visit (Visit 1). • 4. Creatine kinase level exceeds 2.5 times ULN at screening visit (Visit 1). • 5. Presence of previous hypersensitivity to colchicine. • 6. Patients who have ever prescribed pegloticase within 3 months prior to screening visit (Visit 1). • 7. If a stable dose of drugs (losartan, fibrate, thiazide diuretics, loop diuretics, and acetylsalicylic acid) known to affect sUA levels has not been administered during the past 6 weeks prior to screening visit (Visit 1), acetylsalicylic acid is not allowed to use 325 mg/day or more. • 8. Patients who have ever received systemic corticosteroids for 10 or more consecutive days within 1 month prior to screening visit (Visit 1). • 9. Presence of need or potential availability of systemic immunosuppressive drugs or immunomodulatory therapies (e.g., azathioprine, 6-mercaptopurine, and cyclosporine) • 10. Patients who have received high or moderate doses of cytochrome P450 3A4 inhibitors or P-glycoprotein inhibitors within 14 days prior to screening visit (Visit 1). • 11. History of xanthinuria. • 12. History of rheumatoid arthritis. • 13. Presence of active peptic ulcer disease requiring treatment. • 14. Presence of unstable angina, New York Heart Association class III or IV heart failure, myocardial infarction, stroke, deep vein thrombosis, percutaneous coronary intervention (with or without stent), or coronary artery bypass graft within the past 12 months prior to screening visit (Visit 1); current administration of anticoagulants; or the presence of clinically significant electrocardiogram abnormalities in the investigator's opinion at screening visit (Visit 1). • 15. Presence of uncontrolled hypertension (systolic blood pressure>160 mmHg or diastolic blood pressure>95 mmHg) at screening visit (Visit 1). • 16. History of myositis/myopathy, rhabdomyolysis, Stevens-Johnson syndrome, or toxic epidermal necrolysis. • 17. […]

Assay [2] deals with serum uric acid. The settings on record: previous results, gout patients; cited from earlier work.
Setting [3] is: febuxostat 40 mg, mild renal function impairment, 12 weeks.
Setting [4] is: febuxostat 40 mg, normal renal function, 12 weeks.
Where [5] appears, read: febuxostat 40 mg, one patient in moderate renal function impairment group, 12 weeks.

In the case of `Cc1nc(-c2ccc(OCC(C)C)c(C#N)c2)sc1C(=O)O` [Febuxostat, febuxostat, reference compound], in the assay on serum uric acid [1] (setting [3]), the “patients adjusted to serum uric acid <5.0 mg/dL” value is on record as 33% and the “patients adjusted to serum uric acid <6.0 mg/dL” value was 67%. For the same compound, in the assay with serum uric acid [1] (setting [4]), the “patients adjusted to serum uric acid <5.0 mg/dL” value was determined as 20% and the “patients adjusted to serum uric acid <6.0 mg/dL” value was determined as 60%. In the assay with serum uric acid [1] (setting [5]), the “adjustment of serum uric acid to <5.0 mg/dL” value is listed as “not adjusted to less than 5.0 mg/dL” and the “adjustment of serum uric acid to <6.0 mg/dL” value was “not adjusted to less than 6.0 mg/dl”. In the assay on serum uric acid [1] (12 weeks), the “patients with serum uric acid concentration <4 mg/dL” value is given as 0% (0/13 people), the “patients with serum uric acid concentration <5 mg/dL” value is on record as 23% (3/13 people) and the “patients with serum uric acid concentration <6 mg/dL” value was 54% (7/13 people). Further, in the assay on serum uric acid [1] (12 weeks, listed as febuxostat), the “patients with serum uric acid concentration <4 mg/dL” value was 0%, the “patients with serum uric acid concentration <5 mg/dL” value is listed as 23% and the “patients with serum uric acid concentration <6 mg/dL” value came to 54%. For the same compound, the “degree of reduction in serum uric acid” value with serum uric acid [1] (febuxostat group 40 mg, FIG. 3) amounted to 41.4%.

As to `Oc1ncnc2[nH]ncc12` [allopurinol], the “patients in the receiving group with serum uric acid concentration of less than 6 mg/dL” value in the assay on serum uric acid [2] is “about 40%”.
